# Results taken from patent US12577247B2 (BUGWORKS RESEARCH, INC., priority 2021, dated 2026).
# What was measured:
# A2A receptor = target: T1, A2A receptor (Homo sapiens, UniProt P29274); assay: A2aR antagonism IC50, cAMP TR-FRET in HEK-293 cells, high concentration of adenosine (30 μM); type: cell-based; conditions: HEK-293 cells expressing A2A receptor; agonist adenosine 30 μM; 2% HSA; inhibition of cAMP; read-out: A2AR IC50 (nM) (@30 μM Adenosine);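 further: compounds added 10 min before adenosine, then 30 min stimulation at room temperature in buffer with 100 µM rolipram and 30 µM EHNA, signal read 1 h after detection reagents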
# T1 construct: host or cells: HEK-293
# Experimental: A Time-Resolved Fluorescence Energy Transfer (TR-FRET) assay was used to show the inhibition of this cAMP production in HEK cells upon treatment with compounds of the Formula I of the present disclosure.
# HEK-293 cells expressing A2A receptor (#ES-011-C) or A2B receptor (#ES 013-C) were obtained from PerkinElmer. Cells were maintained in DMEM medium supplemented with 10% FBS and 200 μg/mL of G418 at 37° C. and 5% CO2. The cells were cultured in antibiotic free medium for a period of 16-20 hours prior to the assay. All subsequent steps of the assay are performed at room temperature (22-24° C.). […] About 1500 cells per well were pre-incubated for 10 minutes with the compounds of the present invention before adding the agonist Adenosine at a high concentration (30 μM) for a total stimulation time of 30 minutes. […] The assays were conducted in a stimulation buffer containing 1×DMEM, 5 mM HEPES, 2% Human serum albumin (HSA), 100 μM Rolipram and 30 μM erythro-9-(2-hydroxy-3-nonyl) adenine (EHNA). Serial dilutions of compounds were made in stimulation buffer to achieve a final concentration of high micromolar in a reaction volume of 10 μL. The total reaction volume was 10 μL (5 μL of cells, 2.5 μL of antagonist and 2.5 μL of agonist). […] The stimulation was ended, and the reaction completed by adding 5 μL of 4× Eu-cAMP tracer working solution and 5 μL of 4× ULight-anti-cAMP working solution. The TR FRET signal was measured after 1-hour incubation using a Tecan M1000 or a PerkinElmer Victor Nivo plate reader.
# A2B receptor = target: T2, A2B receptor (Homo sapiens, UniProt P29275); assay: A2bR antagonism IC50, cAMP TR-FRET in HEK-293 cells, high concentration of adenosine (30 μM); conditions: A2BR IC50 (nM) (@30 μM Adenosine), HEK-293 cells expressing A2B receptor; agonist adenosine 30 μM; 2% HSA; inhibition of cAMP;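 further: compounds preincubated 10 min with cells, then adenosine stimulation 30 min at room temperature in buffer with Rolipram 100 µM and EHNA 30 µM, TR-FRET read after 1 h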
# T2 sequence (P29275 1-332): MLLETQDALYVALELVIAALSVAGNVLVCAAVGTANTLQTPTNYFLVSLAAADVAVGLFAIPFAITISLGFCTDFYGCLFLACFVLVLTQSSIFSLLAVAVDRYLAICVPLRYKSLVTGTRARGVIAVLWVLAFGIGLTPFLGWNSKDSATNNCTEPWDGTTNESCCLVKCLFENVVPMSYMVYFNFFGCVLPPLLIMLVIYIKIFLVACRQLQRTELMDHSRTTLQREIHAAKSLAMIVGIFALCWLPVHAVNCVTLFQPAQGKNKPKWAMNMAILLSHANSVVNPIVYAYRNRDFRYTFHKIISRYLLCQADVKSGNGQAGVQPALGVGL
# T1 sequence (P29274 whole entry): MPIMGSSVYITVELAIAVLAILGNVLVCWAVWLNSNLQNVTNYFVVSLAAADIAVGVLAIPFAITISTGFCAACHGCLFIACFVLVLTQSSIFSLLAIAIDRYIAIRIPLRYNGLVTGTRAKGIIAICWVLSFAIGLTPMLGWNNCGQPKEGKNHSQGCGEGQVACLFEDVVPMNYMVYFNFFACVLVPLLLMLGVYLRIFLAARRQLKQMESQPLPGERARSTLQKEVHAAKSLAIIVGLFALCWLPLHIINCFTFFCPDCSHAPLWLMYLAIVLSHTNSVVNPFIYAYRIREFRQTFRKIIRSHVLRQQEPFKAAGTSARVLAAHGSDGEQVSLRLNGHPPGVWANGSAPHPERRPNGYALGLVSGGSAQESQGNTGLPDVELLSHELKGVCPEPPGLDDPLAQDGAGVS
Compound,IC50 (A2A receptor),IC50 (A2B receptor)
"CCc1c(C)nn2c(N)c(C#N)c(NCCc3cc(C)n(C4COCC4CO)n3)nc12 (single isomer, unassigned; (+)) [Example 168]",90 nM,650 nM
"Cc1nn2c(N)c(C#N)c(NCCc3ccn(C4(CNC(=O)CCO)CC4)n3)nc2c1Cl [Example 99, N-((1-(3-(2-((7-amino-3-chloro-6-cyano-2-methylpyrazolo[1,5-a]pyrimidin-5-yl)amino)ethyl)-1H-pyrazol-1-yl)cyclopropyl)methyl)-3-hydroxypropanamide]",69 nM,20000 nM
"Cc1nn2c(N)c(C#N)c(NCCc3ccn(C4CCC4CO)n3)nc2c1C (single isomer, unassigned; (-)) [Example 104b, (−)-7-amino-5-((2-(1-(2-(hydroxymethyl)cyclobutyl)-1H-pyrazol-3-yl)ethyl)amino)-2,3-dimethylpyrazolo[1,5-a]pyrimidine-6-carbonitrile]",102 nM,2610 nM
"Cc1nn2c(N)c(C#N)c(NCCc3cccc(CCO)n3)nc2c1C [Example 152, 7-amino-5-((2-(6-(2-hydroxyethyl)pyridin-2-yl)ethyl)amino)-2,3-dimethylpyrazolo[1,5-a] pyrimidine-6-carbonitrile]",209 nM,1790 nM
"CCc1c(C)nn2c(N)c(C#N)c(NCCc3ccn(C4CCC4CO)n3)nc12 (single isomer, unassigned; (+)) [Example 78, (+)-7-amino-3-ethyl-5-((2-(1-(2-(hydroxymethyl)cyclobutyl)-1H-pyrazol-3-yl)ethyl)amino)-2-methylpyrazolo[1,5-a]pyrimidine-6-carbonitrile]",200 nM,798 nM
"CCc1c(C)nn2c(N)c(C#N)c(NCCc3ccn(C4(CNCCO)CC4)n3)nc12 [Example 106, 7-amino-3-ethyl-5-((2-(1-(1-(((2-hydroxyethyl)amino)methyl)cyclopropyl)-1H-pyrazol-3-yl)ethyl)amino)-2-methylpyrazolo[1,5-a]pyrimidine-6-carbonitrile]",75 nM,4390 nM
"Cc1nn2c(N)c(C#N)c(NCCc3cc(C)n(C4(CO)CC4)n3)nc2c1Br [Example 89, 7-amino-3-bromo-5-((2-(1-(1-(hydroxymethyl)cyclopropyl)-5-methyl-1H-pyrazol-3-yl)ethyl)amino)-2-methylpyrazolo[1,5-a]pyrimidine-6-carbonitrile]",66 nM,2370 nM
"Cc1nn2c(N)c(C#N)c(NCCc3ccn(C4CCCC4CO)n3)nc2c1Cl (stereo not drawn) [Example 114, 7-amino-3-chloro-5-((2-(1-(2-(hydroxymethyl)cyclopentyl)-1H-pyrazol-3-yl)ethyl)amino)-2-methylpyrazolo[1,5-a]pyrimidine-6-carbonitrile]",96 nM,4380 nM
"CCc1c(C)nn2c(N)c(C#N)c(NCCc3ccn(C4(CCN)CC4)n3)nc12 [Example 148, 7-amino-5-((2-(1-(1-(2-aminoethyl)cyclopropyl)-1H-pyrazol-3-yl)ethyl)amino)-3-ethyl-2-methylpyrazolo[1,5-a] pyrimidine-6-carbonitrile]",161 nM,2740 nM
"CCc1c(C)nn2c(N)c(C#N)c(NCCc3cccc(CO[C@@H]4CCOC4)n3)nc12 [Example 166, (R)-7-amino-3-ethyl-2-methyl-5-((2-(6-(((tetrahydrofuran-3-yl)oxy)methyl)pyridine-2-yl)ethyl)amino) pyrazolo[1,5-a]pyrimidine-6-carbonitrile]",1420 nM,466 nM
"CCc1c(C)nn2c(N)c(C#N)c(NCCc3cc(C)n(C4(CO)CC4)n3)nc12 [Example 76, 7-amino-3-ethyl-5-((2-(1-(1-(hydroxymethyl)cyclopropyl)-5-methyl-1H-pyrazol-3-yl)ethyl)amino)-2-methylpyrazolo[1,5-a]pyrimidine-6-carbonitrile]",50 nM,1590 nM
"CCc1c(C)nn2c(N)c(C#N)c(NCCc3ccn(C4(CNC(C)=O)CC4)n3)nc12 [Example 147, N-((1-(3-(2-((7-amino-6-cyano-3-ethyl-2-methylpyrazolo[1,5-a]pyrimidin-5-yl)amino)ethyl)-1H-pyrazol-1-yl)cyclopropyl)methyl) acetamide]",363 nM,9080 nM
"CCc1c(C)nn2c(N)c(C#N)c(NCCc3cccn(C)c3=O)nc12 [Example 88, 7-amino-3-ethyl-2-methyl-5-((2-(1-methyl-2-oxo-1,2-dihydropyridin-3-yl)ethyl)amino) pyrazolo[1,5-a]pyrimidine-6-carbonitrile]",286 nM,1300 nM
"CCc1c(C)nn2c(N)c(C#N)c(NCCc3cccn(CCC[S+](C)[O-])c3=O)nc12 (single isomer, unassigned; (+)) [Example 154b, (+)-7-amino-3-ethyl-2-methyl-5-((2-(1-(3-(methylsulfinyl)propyl)-2-oxo-1,2-dihydropyridin-3-yl)ethyl)amino) pyrazolo[1,5-a]pyrimidine-6-carbonitrile]",1010 nM,1410 nM
"CCCc1c(C)nn2c(N)c(C#N)c(NCCc3cccn(CCCO)c3=O)nc12 [Example 156, 7-amino-5-((2-(1-(3-hydroxypropyl)-2-oxo-1,2-dihydropyridin-3-yl)ethyl)amino)-2-methyl-3-propylpyrazolo[1,5-a]pyrimidine-6-carbonitrile]",750 nM,2950 nM
"Cc1nn2c(N)c(C#N)c(NCCc3cccn(CCN)c3=O)nc2c1Cl [Example 125, 7-amino-5-((2-(1-(2-aminoethyl)-2-oxo-1,2-dihydropyridin-3-yl)ethyl)amino)-3-chloro-2-methylpyrazolo[1,5-a] pyrimidine-6-carbonitrile]",767 nM,> 15000 nM
"CCCc1c(C)nn2c(N)c(C#N)c(NCCc3cccc(C)n3)nc12 [Example 164, 7-amino-2-methyl-5-((2-(6-methylpyridin-2-yl)ethyl)amino)-3-propylpyrazolo[1,5-a]pyrimidine-6-carbonitrile]",8260 nM,> 15000 nM
"Cc1nn2c(N)c(C#N)c(NCCc3ccn(C4COCC4CO)n3)nc2c1C (single isomer, unassigned; (+)) [Example 133a, (+)-7-amino-5-((2-(1-(4-(hydroxymethyl)tetrahydrofuran-3-yl)-1H-pyrazol-3-yl)ethyl)amino)-2,3-dimethylpyrazolo[1,5-a]pyrimidine-6-carbonitrile]",554 nM,6690 nM
"Cc1nn2c(N)c(C#N)c(NCCc3ccn(C4(CNCCO)CC4)n3)nc2c1Cl [Example 98, 7-amino-3-chloro-5-((2-(1-(1-(((2-hydroxyethyl)amino)methyl)cyclopropyl)-1H-pyrazol-3-yl)ethyl)amino)-2-methylpyrazolo[1,5-a]pyrimidine-6-carbonitrile]",100 nM,> 15000 nM
"Cc1cncc(CCNc2nc3c(C)c(C)nn3c(N)c2C#N)n1 [Example 140, 7-amino-2,3-dimethyl-5-((2-(6-methylpyrazin-2-yl)ethyl)amino) pyrazolo[1,5-a]pyrimidine-6-carbonitrile]",6020 nM,> 15000 nM
"Cc1nn2c(N)c(C#N)c(NCCc3cccn(CCCN)c3=O)nc2c1Cl [Example 129, 7-amino-5-((2-(1-(3-aminopropyl)-2-oxo-1,2-dihydropyridin-3-yl)ethyl)amino)-3-chloro-2-methylpyrazolo[1,5-a]pyrimidine-6-carbonitrile]",237 nM,5660 nM
